Measured values: US8790724B2, “Formulation of dual cycloxygenase (COX) and lipoxygenase (LOX) inhibitors for mammal skin care” (Unigen, Inc., priority 2003, dated 2014)
Where two headings read alike, the source gives them in different places.

Experiments:
[1] = system: COX-1; conditions: cited from earlier work
[2] = system: carrageenin-induced mouse paw edema; conditions: oral administration, 100 mg/kg; Min et al. (1999); cited from earlier work
[3] = system: prostaglandin endoperoxide synthase; conditions: Kalkbrenner et al. (1992); cited from earlier work
[4] = system: cox-2 gene transcription in human colon cancer DLD-1 cells; conditions: Mutoh et al. (2000), read-out: IC50 suppression of cox-2 gene transcription; cited from earlier work
[5] = target: T1, recombinant ovine COX-1 (Ovis aries, UniProt P05979); experiment: Inhibition of COX-1 peroxidase activity, TMPD assay (Example 3); type: biochemical
T1 sequence (P05979 25-600): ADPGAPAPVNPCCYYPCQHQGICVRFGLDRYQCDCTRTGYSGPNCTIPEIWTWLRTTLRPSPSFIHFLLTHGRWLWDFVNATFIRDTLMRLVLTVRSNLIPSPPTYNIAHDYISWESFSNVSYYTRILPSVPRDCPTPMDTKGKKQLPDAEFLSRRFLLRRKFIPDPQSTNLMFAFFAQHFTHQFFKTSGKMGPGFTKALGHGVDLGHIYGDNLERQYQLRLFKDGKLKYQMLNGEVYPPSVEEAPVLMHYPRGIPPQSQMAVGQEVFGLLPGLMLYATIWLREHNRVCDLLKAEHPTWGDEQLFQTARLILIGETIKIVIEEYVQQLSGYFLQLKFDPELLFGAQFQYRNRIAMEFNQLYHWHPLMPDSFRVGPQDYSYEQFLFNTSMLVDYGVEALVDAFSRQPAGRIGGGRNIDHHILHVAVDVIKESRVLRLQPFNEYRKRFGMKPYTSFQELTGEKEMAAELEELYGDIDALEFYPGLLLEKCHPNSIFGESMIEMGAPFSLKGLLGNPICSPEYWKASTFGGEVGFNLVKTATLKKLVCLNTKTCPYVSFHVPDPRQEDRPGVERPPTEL
Description: (§1) In order to screen for compounds that inhibited the COX-1 and COX-2 activities, a high throughput, in vitro assay was developed that utilized the inhibition of the peroxidase activity of both enzymes. […] Briefly, the composition or compound being examined was titrated against a fixed amount of COX-1 and COX-2 enzymes. A cleavable, peroxide chromophore was included in the assay to visualize the peroxidase activity of each enzyme in presence of arachidonic acid as a cofactor. Typically, assays were performed in a 96-well format. Each inhibitor, taken from a 10 mg/mL stock solution in 100% DMSO, was tested in triplicate at room temperature using the following range of concentrations: 0, 0.1, 1, 5, 10, 20, 50, 100, and 500 μg/mL. […] The components were mixed for 10 seconds on a rotating platform, followed by the addition of 20 μL of 2 mM N,N,N′N′-tetramethyl-p-phenylenediamine dihydrochloride (TMPD) and 20 μL of 1.1 mM arachidonic acid to initiate the reaction. The plate was shaken for 10 seconds and then incubated 5 minutes before reading the absorbance at 570 nm. The inhibitor concentration vs. % inhibition was plotted and the IC50 determined by taking the half-maximal point along the isotherm and intersecting the concentration on the X-axis. The IC50 was then normalized to the number of enzyme units in the assay.

[6] = target: T2, recombinant ovine COX-2 (Ovis aries, UniProt P79208); experiment: Inhibition of COX-2 peroxidase activity, TMPD assay (Example 3); type: biochemical; conditions: IC50 normalized to the number of enzyme units
T2 construct: purchased Cayman
T2 sequence (P79208 17-603): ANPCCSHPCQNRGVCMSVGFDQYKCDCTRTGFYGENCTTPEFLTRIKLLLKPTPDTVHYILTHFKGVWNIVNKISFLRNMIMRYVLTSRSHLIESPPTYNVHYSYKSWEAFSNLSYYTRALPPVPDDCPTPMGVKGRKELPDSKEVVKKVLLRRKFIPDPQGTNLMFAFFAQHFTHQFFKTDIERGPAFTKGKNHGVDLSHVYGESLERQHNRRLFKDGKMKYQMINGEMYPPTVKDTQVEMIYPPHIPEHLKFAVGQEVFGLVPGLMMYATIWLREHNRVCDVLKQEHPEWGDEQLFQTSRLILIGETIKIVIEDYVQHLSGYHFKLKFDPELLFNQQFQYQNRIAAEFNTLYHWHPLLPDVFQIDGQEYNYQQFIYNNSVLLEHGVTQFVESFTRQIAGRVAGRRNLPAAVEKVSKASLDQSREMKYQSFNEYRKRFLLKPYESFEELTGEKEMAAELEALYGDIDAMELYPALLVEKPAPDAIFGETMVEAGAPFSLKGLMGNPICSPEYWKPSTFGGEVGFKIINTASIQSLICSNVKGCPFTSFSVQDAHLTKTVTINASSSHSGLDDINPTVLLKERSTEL
Description: as §1

[7] = system: LTB4 (5-LOX pathway) in HT-29 cells; experiment: Competitive ELISA for LTB4 in HT-29 cells; type: cell-based; conditions: Homo sapiens, 3 μg/mL, 48 hrs, read-out: inhibition of LTB4 production in HT-29 cells
Method: A Soliprin™ formulation (80:20) was prepared as described in Example 9. (See also Example 14 of U.S. patent application Ser. […] The sample was titrated in tissue culture media containing THP-1 or HT-29 cells; monocyte cell lines that express COX-1, COX-2 and 5-LOX. A competitive ELISA for Leukotriene B4 (LTB4; Neogen, Inc., Cat #406110) was used to assess the effect of this Soliprin™ formulation on newly synthesized levels of LTB4 present in each cell line as a measure Soliprin™'s inhibitory effect on the 5-LOX pathway. The assay was performed in duplicate by adding 160,000 to 180,000 cells per well in 6-well plates. […] Each treated cell line was then harvested by centrifugation and disrupted by gentle dounce homogenization lysis in physiological buffers.

## Oc1ccc([C@H]2Oc3cc(O)cc(O)c3C[C@H]2O)cc1 [Epiafzelechin]
[1]; isolated from Celastrus orbiculatus, Min et al. (1999)
  IC50: 15 µM
[2]
  anti-inflammatory activity against carrageenin-induced mouse paw edema: demonstrated anti-inflammatory activity

## Oc1cc(O)c2c(c1)OC(c1ccc(O)c(O)c1)C(O)C2 (stereo not drawn) [Catechin]
[3]
  IC50: 40 µM
[1]; isolated from the bark of Ceiba pentandra, Noreen et al. (1998) J. Nat. Prod. 61:8-12
  IC50: 80 µM
[4]
  IC50: 415 µM

## O=C(O)[C@H]1O[C@@H](Oc2cc3oc(-c4ccccc4)cc(=O)c3c(O)c2O)[C@H](O)[C@@H](O)[C@@H]1O [Baicalin]
[5]; peroxidase activity, IC50 normalized to the number of enzyme units
  IC50 for COX-1: 0.44 μg/mL/unit of enzyme
[6]
  IC50 for COX-2: 0.28 μg/mL/unit

## COc1c(O)cc(O)c2c(=O)cc(-c3ccccc3)oc12 [Wogonin]
[5]; purified Free-B-Ring flavonoids, concentration not given
  Inhibition of COX-1: 16%

## CC(C)Cc1ccc(C(C)C(=O)O)cc1 (stereo not drawn) [Ibuprofen, ibuprofen]
[7]
  inhibition at 3 µg/mL: 20%
